Experiment [1] deals with human platelet-rich plasma (PRP). The experiment is described as follows: In vitro agonist-induced platelet aggregation (aggregometer). The format is cell-based. On the procedure: Figure 3 Effects of CSL on agonist-induced platelet aggregation. Platelet-rich plasma (PRP) was preincubated for 5 min with different concentrations of CSL, Riva, or the vehicle. […] Data are shown as mean values ± SD of five independent experiments. * p < 0.05 vs. D. D = 0.2% DMSO, used as the vehicle control.
Ten fasting healthy volunteers (aged 24–28; six women and four men) who were free of allergies, cardiovascular problems, carbohydrate, or lipid metabolic abnormalities and had not taken any morning medication had their blood samples taken. None of our subjects used addictive drugs or antioxidant food supplements, and their diets were well balanced. The plasma from the blood samples was immediately spun down (1300× g for 15 min) to separate it from sodium citrate (10.9 mM) and pooled for the following investigations. Next, human blood samples were spun down at room temperature to rapidly separate the PRP. The PRP concentration was adjusted to 1 × 10^9 platelets/mL using a hemocytometer. After being rinsed once in HEPES buffer containing 1 mM CaCl2, the PRP pellet was maintained at room temperature for an additional 30 min. Then, 10 mL of the platelet samples were utilized to measure each clotting time point. The IRB of Kyungpook National University Hospital (Daegu, Republic of Korea) approved this study protocol (KNUH 2012-01-010).
CSL dissolved in DMSO was incubated with human PRP for a specified time (1, 3, 5, or 10 min). […]

The subject of experiment [2] is myristoylated alanine-rich C kinase substrate (MARCKS) in human platelets. The experiment is described as follows: MARCKS phosphorylation (PKC activation), western blotting. It is filed as cell-based. The following applies: CSL 10 or 20 μM; ADP 10 μM or U46619 6 μM. On the procedure:
Figure 6 Effects of CSL on activation of protein kinase CPKC activation and mobilization of intracellular calcium. (A) Rinsed platelets were incubated with DMSO or CSL (10 or 20 μM) for 10 min at 37 °C, and stimulation of ADP (10 μM, left) or U46619 (6 μM, right) was given for 1 min. The phosphorylation level of MARCKS in the platelets was determined with western blotting. Representative images from each group are shown (n = 3). Densitometric intensities of each signaling pathway component normalized to β-actin or total protein. (B,C) Human platelets preloaded with Fura-2 were incubated with DMSO (D) or CSL with extracellular Ca^2+ (1 mM) for 10 min at 37 °C, and ADP ((B) 10 μM) or U46619 ((C) 6 μM) stimulation was given to induce an increase in [Ca^2+]i. Data are shown as mean values ± SD of five independent experiments. * p < 0.05 vs. ADP (A,B) or U46619 (A,C) alone. D = 0.2% DMSO, used as the vehicle control.
SDS-PAGE was used to isolate identical amounts of protein from the […] extracts, and the protein was then electrotransferred onto an immobilon membrane (Millipore, Billerica, MA, USA). The membranes underwent blocking, anti-phospho-MARCKS (Santa Cruz, CA, USA) incubation for 1.5 h at room temperature, HRP-conjugated secondary antibody incubation, and ECL detection. […]
Background: Immunoblotting shows a protein as a band on a membrane.

For experiment [3], the system named is platelet-poor plasma (PPP). The experiment can be described thus: Ex vivo aPTT clotting time after intravenous injection. The following applies: mice. The format is in vivo, mouse. On the procedure: First, the potential cytotoxicity of […] on HUVECs was assessed using the 3-(4,5-dimethylthiazol-2-yl)-2,5-diphenyltetrazolium bromide (MTT) assay. […] The activated partial thromboplastin time (aPTT) and prothrombin time (PT), two coagulation parameters altered by CSL in vitro, were assessed first. We used the direct FXa inhibitor rivaroxaban as a positive control for our experiments. […] In the aPTT experiments, rivaroxaban at 8.38 μM and CSL at 7.23 μM, respectively, doubled the clotting time. Each mouse group (n = 5) received intravenous injections of CSL for 4 consecutive days to validate the in vitro results in an ex vivo experiment. […] In the ex vivo aPTT assays, treatment with CSL at 0.25 mg/kg and rivaroxaban at 0.29 mg/kg, respectively, doubled the clotting time. The average blood volume was determined to be 2 mL based on an estimated circulating blood volume for mice of 72 mL/kg and an average weight of 27 g for each animal used in this investigation. As a result, the estimated concentration of CSL in the peripheral blood after each injection ([…]) was 2.5, 5, 10, or 20 μM, respectively.
Figure 2 Effects of CSL on clotting time. (A) Platelet-poor plasma (PPP) was incubated with the indicated concentrations of CSL or rivaroxaban (Riva) for 15 min. (B) One hour after administering DMSO, CSL, or Riva, blood was collected from the mice, and PPP was obtained. Then, in vitro aPTT (A) or ex vivo aPTT was measured, as described in the Methods sections. Data are shown as mean values ± SD of five independent experiments. * p < 0.05 vs. D. D = 0.2% DMSO, used as the vehicle control.
Male C57BL/6 mice aged 7 weeks (mean weight: 27 g) were purchased from Orient Bio Co., in Sungnam, Republic of Korea, and were subjected to a 12-day acclimatization phase. […]
Plasma was taken by centrifuging blood (2000× g for 10 min) at room temperature following dimethyl sulfoxide (DMSO) or CSL administration for 1 h to assess PT and aPTT using a thrombotimer (Behnk Elektronik, Norderstedt, Germany). […] Next, the clotting time was measured.

SMILES strings stand for the structures.

With `COc1cc(-c2cc(=O)c3c(O)c(OC)c(OC)cc3o2)ccc1O` [CSL, 4,5-dihydroxy-3,6,7-trimethoxyflavone], in experiment [1] (ADP 10 μM), the “platelet aggregation induced by ADP” value is listed as “significantly suppressed”. Besides, the “platelet aggregation induced by U46619” value in experiment [1] (U46619 6 μM) was “significantly suppressed”. For the same compound, the “platelet aggregation induced by collagen” value in experiment [1] (collagen 1 μg/mL) is given as “significantly suppressed”. Further, the “MARCKS phosphorylation in response to ADP and U46619” value in experiment [2] is recorded as “prevented MARCKS from becoming phosphorylated”. The “dose that doubled the clotting time (ex vivo aPTT)” value in experiment [3] (intravenous) was 0.25 mg/kg. In addition, the “blood clotting time ex vivo (aPTT)” value in experiment [3] (intravenous injections for 4 consecutive days) is reported as “dramatically increased blood clotting time”.

The record behind these values is PMC10145360, “Antiplatelet Aggregation Properties of Cirsilineol: A Novel Inhibitor of Blood Coagulation Factor Xa” (Pharmaceuticals, 2023).
